Measurements as given in patent publication US20260062422A1 (Halda Therapeutics OpCo, Inc., priority 2022, published 2026).

Experiments:
[1] = tested on: T-Rex 293 cell line SC3 cells lacking increased expression of androgen receptor protein; test: Cellular growth inhibition, T-Rex 293 SC3 cells without doxycycline, CellTiter-Glo; type: cell-based; settings: 72 h, T-Rex 293 SC3 cells not exposed to doxycycline, CellTiter-Glo 2.0
Method in brief: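 SC3 is a T-Rex 293 clone stably transfected with wild-type androgen receptor in pcDNA4/TO, inducible by 10 ng/mL doxycycline. Cells were grown in phenol red-free DMEM with 10% charcoal-dextran FBS, with or without doxycycline, dosed 24 h after seeding (0.5% DMSO) for 72 h. Viability was read by CellTiter-Glo 2.0 luminescence and GI50 obtained from four-parameter fits.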

VCaP cells = test: Cellular growth inhibition assay for VCaP cells, CellTiter-Glo; type: cell-based, human; settings: Homo sapiens, VCaP, 72 h, 72 hours treatment, CellTiter-Glo 2.0
Method in brief: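 GI50 values come from four-parameter curve fits of luminescence data normalized to a zero baseline. Compound, in medium with 0.5% DMSO, was added one day after plating and left for 72 h before CellTiter-Glo 2.0 addition.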

| SMILES | GI50 (VCaP cells) [µM] | GI50 [1] [µM] |
| --- | --- | --- |
| Cc1sc2c(c1C)C(c1ccc(Cl)cc1)=N[C@@H](CC(=O)NCCCN1CCN(CCCN(C)c3ncc(C(=O)N[C@H]4C(C)(C)[C@H](Oc5ccc(C#N)c(Cl)c5)C4(C)C)cn3)CC1)c1nnc(C)n1-2 [Compound I-5, N-((1r,3r)-3-(3-chloro-4-cyanophenoxy)-2,2,4,4-tetramethylcyclobutyl)-2-((3-(4-(3-(2-((S)-4-(4-chlorophenyl)-2,3,9-trimethyl-6H-thieno[3,2-f][1,2,4]triazolo[4,3-a][1,4]diazepin-6-yl)acetamido)propyl)piperazin-1-yl)propyl)(methyl)amino)pyrimidine-5-carboxamide] | < 0.5 | > 3 |
| Cc1sc2c(c1C)C(c1ccc(CC3CC4(CCN(c5ncc(C(=O)N[C@H]6C(C)(C)[C@H](Oc7ccc(C#N)c(Cl)c7)C6(C)C)cn5)CC4)C3)cc1)=N[C@@H](C)c1nnc(C)n1-2 [Compound I-436] | > 3 | 1.5 to 3 |
| CCNC(=O)C[C@@H]1N=C(c2ccc(N3CCC(N(C)C4CN(c5ncc(C(=O)N[C@H]6C(C)(C)[C@H](Oc7ccc(C#N)c(Cl)c7)C6(C)C)cn5)C4)CC3)cc2)c2c(sc(C)c2C)-n2c(C)nnc21 [Compound I-123] | < 0.5 | 0.5 to 1.5 |

Continued, in another order:

| GI50 (VCaP cells) [µM] | SMILES | GI50 [1] [µM] |
| --- | --- | --- |
| 0.5 to 1.5 | CCNC(=O)C[C@@H]1N=C(c2cccc(OCCOCCOC3CCN(c4ncc(C(=O)N[C@H]5C(C)(C)[C@H](Oc6ccc(C#N)c(Cl)c6)C5(C)C)cn4)CC3)c2)c2c(sc(C)c2C)-n2c(C)nnc21 [Compound I-47, N-((1r,3r)-3-(3-chloro-4-cyanophenoxy)-2,2,4,4-tetramethylcyclobutyl)-2-(4-(2-(2-(3-((S)-6-(2-(ethylamino)-2-oxoethyl)-2,3,9-trimethyl-6H-thieno[3,2-f][1,2,4]triazolo[4,3-a][1,4]diazepin-4-yl)phenoxy)ethoxy)ethoxy)piperidin-1-yl)pyrimidine-5-carboxamide] | 0.5 to 1.5 |
| > 3 | CCN(C)C(=O)C[C@@H]1N=C(c2ccc(CCCOC3CCN(c4ncc(C(=O)N[C@H]5C(C)(C)[C@H](Oc6ccc(C#N)c(Cl)c6)C5(C)C)cn4)CC3)cc2)c2c(sc(C)c2C)-n2c(C)nnc21 [Compound I-101] | > 3 |
| < 0.5 | Cc1sc2c(c1C)C(c1ccc(Cl)cc1)=N[C@@H](CC(=O)NCCCCOCCOC1CCN(c3ncc(C(=O)N[C@H]4C(C)(C)[C@H](Oc5ccc(C#N)c(Cl)c5)C4(C)C)cn3)CC1)c1nnc(C)n1-2 [Compound I-28] | 0.5 to 1.5 |
